Assay results published in article PMC8402547, “In Vitro and In Vivo Analysis of Ochratoxin A-Derived Glucuronides and Mercapturic Acids as Biomarkers of Exposure” (Toxins, 2021).

Key:
Format in all cases: in vivo, male F344/N rats
[1] = Direct LC–MS/MS analysis of OTA metabolites in urine of OTA-treated rats; details: OTA up to 2 mg/kg bw, negative ionization mode
Method: Archived urine samples from previous repeated dose oral toxicity studies on OTA in male F344/N rats were used. The studies were performed according to national animal welfare regulations after authorization by the local authorities (Regierung von Unterfranken, AZ 621-2531.01-9/98 and AZ 54-2531.01-59/05).
(§1) 14-day study: Male F344 rats (170–190 g) were purchased from Charles-River Laboratories, Sulzfeld, Germany. Animals had free access to water and standard diet (Altromin) and were kept under standard conditions (12 h day/night cycle, temperature 21–23 °C, humidity 45–55%). Rats were transferred to metabolic cages (Tecniplast Metabolic Cage—Rats Over 300 g; Tecniplast, Italy) for collection of urine 3 days prior to dosing. Animals were administered OTA dissolved in corn oil by oral gavage at 0, 0.25, 0.5, 1.0 and 2.0 mg/kg bw for 2 weeks (5 days per week). Urine was collected every 12 h on day 1 of treatment and every 24 h thereafter on ice, aliquoted and stored at −20 °C until further analysis.
(§2) 90-day study: Male F344/N rats (6–7 weeks old) were purchased from Harlan-Winkelmann, Borchen, Germany. Animals were housed in groups of 5 in Macrolon type-4 cages and allowed free access to pelleted standard rat maintenance diet (SSNIFF, Soest, Germany) and tap water. After a week of acclimatization, rats (n = 5/dose) were exposed to OTA dissolved in corn oil by oral gavage at doses of 0, 21, 70 or 210 µg/kg bw for 2, 4 or 13 weeks (5 days per week). For urine collection, animals were transferred into metabolic cages (Tecniplast Metabolic Cage—Rats Over 300 g; Tecniplast, Italy) 48 h prior to necropsy and fasted for 20 h but allowed free access to tap water. Urine was collected for 24 h on ice, aliquoted and stored at −20 °C until further analysis.
Urine samples were diluted with acetonitrile (2:1), vortexed and cleared via centrifugation (4 °C, 15 min., 2000× g) to precipitate proteins. Of the resulting supernatant, 10 µL were injected into the LC–MS system and analyzed using the method described below.
(§3) LC–MS/MS analyses were performed on an Agilent 1100 series LC coupled to an API 2000/Q-Trap mass spectrometer (Applied Biosystems/MDS Sciex, Concord, Canada). Samples were injected into the LC–MS/MS system through an Agilent 1100 series autosampler. Separations were carried out on a ReproSil-Pur C18 AQ column (2 mm × 150 mm, 5 µm; Dr. Maisch; Ammerbuch, Germany). Gradient elution of OTA-derived metabolites was carried out with water + 0.1% formic acid (solvent A) and acetonitrile (solvent B). Initially, solvent A was held isocratic for 5 min at 100%, followed by a linear gradient to 95% B in 5 min. These conditions were held for further 5 min. Within 1 min, the gradient decreased linearly to 0% B and remained at initial conditions until the end of analysis (30 min). A flow rate of 0.2 mL/min was used. For each run, 10 µL of the respective sample were injected by the autosampler.
(§4) The API 2000/Q-Trap mass spectrometer was operated with a Turbo Ion Spray source in negative ion mode with a voltage of −4000 V. Spectral data were recorded with N2 as the heater gas at 450 °C and as the collision gas (CAD = −2) in multiple reaction monitoring mode (MRM).
In addition to MRM, constant neutral loss of 129 amu in the negative ion mode based on the characteristic fragmentation pattern of mercapturic acids was used to screen for N-acetyl-cysteine conjugates of OTA. Furthermore, constant neutral loss of 176 amu in positive ion mode based on the fragmentation pattern of glucuronic acid conjugates was used to screen for OTA glucuronides.

[2] = 14-day rat study: 24 h urinary excretion of OTA and OTA-glucuronides, LC–MS/MS with and without β-glucuronidase hydrolysis; details: for Urinary excretion / Urinary excretion, fraction of the administered dose: 2 mg OTA/kg bw oral, 5 d/week; for Urinary excretion, fraction of the administered dose: 24 h urine
Method: as §1
(§5) Duplicate analysis of OTA in urine samples with and without enzymatic hydrolysis allowed for indirect measurement of glucuronides, whereby an increase in the concentration of OTA in the samples incubated with enzyme compared to those without enzymatic treatment reflected the hydrolyzed glucuronides. Aliquots of rat urine (125 µL) were mixed with 0.1 M sodium acetate (104 µL; pH = 5). For analysis of the concentration of OTA without enzymatic hydrolysis, an aliquot (30 µL) of this solution was removed and mixed with 7 µL acetonitrile. The remaining solution (199 µL) was incubated with β-glucuronidase (1.65 µL; <100,000 units/mL) at 37 °C for 1 h. Hydrolysis was terminated by addition of ice-cold acetonitrile (50 µL) and centrifugation (15 min., 4 °C, 20,000× g). To 98 µL supernatant, 2 µL isotopically labeled ^13C20-OTA in acetonitrile (14-day study: 5 µg/mL; 90-day study: 1 µg/mL) was added as an internal standard. For analysis, 10 µL of each sample were injected into the LC–MS system and analyzed using the method described below. A calibration curve was prepared from solutions of OTA and the isotopically labeled ^13C20-OTA internal standard in acetonitrile and subsequent dilution with urine of a control animal.
as §3, §4

[3] = 90-day rat study: 24 h urinary excretion of OTA and OTA-glucuronides, LC–MS/MS with and without β-glucuronidase hydrolysis; details: for Urinary excretion, fraction of the administered dose / Urinary excretion: 5 days/week; for Urinary excretion, fraction of the administered dose: 24 h urine
Method: as §2, §5, §3, §4

[4] = 4 weeks treatment, OTA 210 μg/kg bw per day oral, n = 1

Structure (SMILES): CC1Cc2c(Cl)cc(C(=O)NC(Cc3ccccc3)C(=O)OC3OC(C(=O)O)C(O)C(O)C3O)c(O)c2C(=O)O1 (centres unmarked) [OTA-Glucuronide]
- Detection in urine of OTA-treated rats by direct LC–MS/MS (MRM) [1]: failed
- Urinary excretion ([2]; animal 2, day 3 of treatment): 0.6 nmol/24 h
- Urinary excretion, fraction of the administered dose ([2]; animal 2, day 3 of treatment): 0.1%
- Urinary excretion ([2]; animal 2, day 5 of treatment): 7.0 nmol/24 h
- Urinary excretion, fraction of the administered dose ([2]; animal 2, day 5 of treatment): 0.8%
- Urinary excretion ([2]; animal 2, day 7 of treatment): 0.7 nmol/24 h
- Urinary excretion, fraction of the administered dose ([2]; animal 2, day 7 of treatment): 0.1%
- Urinary excretion ([2]; animal 2, day 9 of treatment): 12.2 nmol/24 h
- Urinary excretion, fraction of the administered dose ([2]; animal 2, day 9 of treatment): 1.4%
- Urinary excretion ([2]; animal 2, day 11 of treatment): 3.1 nmol/24 h
- Urinary excretion, fraction of the administered dose ([2]; animal 2, day 11 of treatment): 0.4%
- Urinary excretion ([2]; animal 2, day 13 of treatment): 3.4 nmol/24 h
- Urinary excretion, fraction of the administered dose ([2]; animal 2, day 13 of treatment): 0.4%
- Urinary excretion ([2]; animal 3, day 3 of treatment): 1.5 nmol/24 h
- Urinary excretion, fraction of the administered dose ([2]; animal 3, day 3 of treatment): 0.2%
- Urinary excretion ([2]; animal 3, day 5 of treatment): 1.6 nmol/24 h
- Urinary excretion, fraction of the administered dose ([2]; animal 3, day 5 of treatment): 0.3%
- Urinary excretion ([2]; animal 3, day 7 of treatment): 22.0 nmol/24 h
- Urinary excretion, fraction of the administered dose ([2]; animal 3, day 7 of treatment): 2.4%
- Urinary excretion ([2]; animal 3, day 9 of treatment): 16.9 nmol/24 h
- Urinary excretion, fraction of the administered dose ([2]; animal 3, day 9 of treatment): 1.9%
- Urinary excretion ([2]; animal 3, day 11 of treatment): 22.5 nmol/24 h
- Urinary excretion, fraction of the administered dose ([2]; animal 3, day 11 of treatment): 2.5%
- Urinary excretion ([2]; animal 3, day 13 of treatment): 6.384 nmol/24 h
- Urinary excretion, fraction of the administered dose ([2]; animal 3, day 13 of treatment): 0.7%
- 24 h urinary excretion, % of the daily administered dose ([2]; range over the course of the study, OTA 2 mg/kg bw for 2 weeks (5 days/week)): 0.1–2.5%
- Urinary excretion, fraction of the administered dose ([3]; 2 weeks treatment, OTA 21 μg/kg bw per day oral): 0.8%
- Urinary excretion ([3]; 2 weeks treatment, OTA 21 μg/kg bw per day oral, mean ± SD): 0.10 ± 0.02 nmol/24 h
- Urinary excretion, fraction of the administered dose ([3]; 2 weeks treatment, OTA 70 μg/kg bw per day oral): 0.6%
- Urinary excretion ([3]; 2 weeks treatment, OTA 70 μg/kg bw per day oral, mean ± SD): 0.23 ± 0.08 nmol/24 h
- Urinary excretion, fraction of the administered dose ([3]; 2 weeks treatment, OTA 210 μg/kg bw per day oral): 0.4%
- Urinary excretion ([3]; 2 weeks treatment, OTA 210 μg/kg bw per day oral, mean ± SD): 0.48 ± 0.36 nmol/24 h
- Urinary excretion, fraction of the administered dose ([3]; 4 weeks treatment, OTA 21 μg/kg bw per day oral): 0.7%
- Urinary excretion ([3]; 4 weeks treatment, OTA 21 μg/kg bw per day oral, mean ± SD): 0.08 ± 0.09 nmol/24 h
- Urinary excretion, fraction of the administered dose ([3]; 4 weeks treatment, OTA 70 μg/kg bw per day oral): 1.5%
- Urinary excretion ([3]; 4 weeks treatment, OTA 70 μg/kg bw per day oral, mean ± SD): 0.61 ± 0.67 nmol/24 h
- Urinary excretion, fraction of the administered dose [3, 4]: 0.2%
- Urinary excretion [3, 4]: 0.21 nmol/24 h
- Urinary excretion, fraction of the administered dose ([3]; 13 weeks treatment, OTA 21 μg/kg bw per day oral): 0.2%
- Urinary excretion ([3]; 13 weeks treatment, OTA 21 μg/kg bw per day oral, mean ± SD): 0.03 ± 0.00 nmol/24 h
- Urinary excretion, fraction of the administered dose ([3]; 13 weeks treatment, OTA 70 μg/kg bw per day oral): 1.7%
- Urinary excretion ([3]; 13 weeks treatment, OTA 70 μg/kg bw per day oral, mean ± SD): 0.85 ± 0.74 nmol/24 h
- Urinary excretion, fraction of the administered dose ([3]; 13 weeks treatment, OTA 210 μg/kg bw per day oral): 1.1%
- Urinary excretion ([3]; 13 weeks treatment, OTA 210 μg/kg bw per day oral, mean ± SD): 1.72 ± 1.53 nmol/24 h
- Relationship between OTA dose and urinary excretion (Pearson correlation) ([3]; OTA 0, 21, 70, 210 μg/kg bw, 2, 4 and 13 weeks): linear relationship
- Excretion in male rat urine, % of the orally administered dose ([3]; male rats, indirect analysis, summary statement in discussion): less than 2%
- Fraction of the administered dose excreted in urine ([3]; range over 90-day study, OTA 21, 70 and 210 µg/kg (5 days/week)): 0.2 to 1.7%
